Source: patent US9018224B2, “Substituted cyclopropyl compounds useful as GPR119 agonists” (Merck Sharp & Dohme Corp., priority 2011, dated 2015)
pEC50: −log10 of the molar value.

Molecular target: T1, human GPR119 (Homo sapiens, UniProt Q8TDV5)
T1 sequence (Q8TDV5 1-308 limits assumed): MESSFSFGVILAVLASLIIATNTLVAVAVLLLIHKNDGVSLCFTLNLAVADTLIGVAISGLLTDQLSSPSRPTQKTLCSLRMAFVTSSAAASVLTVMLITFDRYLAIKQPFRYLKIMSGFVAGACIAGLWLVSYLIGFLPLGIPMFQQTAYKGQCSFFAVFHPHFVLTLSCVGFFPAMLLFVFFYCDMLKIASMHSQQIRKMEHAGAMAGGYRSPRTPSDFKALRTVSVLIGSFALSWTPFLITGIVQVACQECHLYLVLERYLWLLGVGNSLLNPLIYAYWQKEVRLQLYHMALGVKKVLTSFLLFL
Assay: Measurement of GPR119 signaling by cAMP (LANCE cAMP kit or HTRF) in HEK293 cells transfected with human GPR119
Assay type: cell-based
Details: agonist cAMP response in HEK293 cells stably transfected with human GPR119; patent does not say which of the two cAMP formats (LANCE or HTRF)
Procedure, shortened: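 LANCE TR-FRET cAMP readout; detection with Eu-SA/biotin-cAMP tracer for 3 h, signal converted to cAMP via standard curve, duplicates, 4-parameter fit vs DMSO basal and internal agonist maximum.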

Compound | pEC50
Cc1nc2c(o1)CN(C(=O)Cc1ccc(OCC[C@@H]3C[C@@H]3C3CCN(c4ncc(Cl)cn4)CC3)cc1F)CC2 [Example 141] | 8.92
O=C(Cc1ccc(OCC[C@@H]2C[C@@H]2C2CCN(c3ncc(Cl)cn3)CC2)cc1F)N1CCn2cc(C(F)(F)F)nc2C1 [Example 132] | 9.26
Cc1nc2c([nH]1)CN(C(=O)Cc1ccc(OCC[C@@H]3C[C@@H]3C3CCN(c4ncc(Cl)cn4)CC3)cc1F)C2 [Example 121] | 8.66
O=C(Cc1ccc(OCC[C@@H]2C[C@@H]2C2CCN(c3ncc(Cl)cn3)CC2)cc1)N1CCOCC1 [Example 5] | 8.44
O=C(Cc1ccc(OCC[C@@H]2C[C@@H]2C2CCN(c3ncc(Cl)cn3)CC2)cc1F)N1CCc2sc(C3CC3)nc2C1 [Example 190] | 8.19
O=C(Cc1ccc(OCC[C@@H]2C[C@@H]2C2CCN(c3ncc(Cl)cn3)CC2)cc1F)N1CCCc2ncccc21 [Example 131] | 8.10
COCc1cnc(N2CCC([C@H]3C[C@H]3CCOc3ccc(CC(=O)N4CCc5nc(C)oc5C4)c(F)c3)CC2)nc1 [Example 58] | 8.92
COCc1cnc(N2CCC([C@H]3C[C@H]3CCOc3ccc(CC(=O)N4CCn5cnnc5C4)c(F)c3)CC2)nc1 [Example 59] | 8.14
COc1nnc2n1CCN(C(=O)Cc1ccc(OCC[C@@H]3C[C@@H]3C3CCN(c4ncc(Cl)cn4)CC3)cc1F)C2 [Example 137] | 8.41
O=C(Cc1ccc(OCC[C@@H]2C[C@@H]2C2CCN(c3ncc(Cl)cn3)CC2)cc1F)N1CCC[C@@H]1C(F)(F)F [Example 76] | 8.62
O=C(Cc1ccc(OCC[C@@H]2C[C@@H]2C2CCN(c3ncc(Cl)cn3)CC2)cc1F)N1CCn2nc(C3CC3)nc2C1 [Example 148] | 8.92
CN(CCC1CCOCC1)C(=O)Cc1ccc(OCC[C@@H]2C[C@@H]2C2CCN(c3ncc(Cl)cn3)CC2)cc1F [Example 165] | 8.59
O=C(Cc1ccc(OCC[C@@H]2C[C@@H]2C2CCN(c3ncc(Cl)cn3)CC2)cc1F)NC1CCC(F)(F)C1 (stereo partly shown) [Example 95] | 8.64
O=C(c1cn2c(n1)CN(C(=O)Cc1ccc(OCC[C@@H]3C[C@@H]3C3CCN(c4ncc(Cl)cn4)CC3)cc1F)CC2)C1CC1 [Example 144] | 8.14
O=C(Cc1ccc(OCC[C@@H]2C[C@@H]2C2CCN(c3ncc(Cl)cn3)CC2)cc1F)N1CCc2nc(C3CC3)sc2C1 [Example 184] | 8.77
CC(C)CN(C)C(=O)Cc1ccc(OCC[C@@H]2C[C@@H]2C2CCN(c3ncc(Cl)cn3)CC2)cc1F [Example 166] | 8.70
Cc1cnc(Cc2ccc(OCC[C@@H]3C[C@@H]3C3CCN(c4ncc(Cl)cn4)CC3)cc2F)o1 [Example 243, 5-chloro-2-{4-[(1R,2S)-2-(2-{3-fluoro-4-[(5-methyl-1,3-oxazol-2-yl)methyl]phenoxy}ethyl)cyclopropyl]piperidin-1-yl}pyrimidine] | 8.60
O=C(Cc1ccc(OCC[C@@H]2C[C@@H]2C2CCN(c3ncc(Cl)cn3)CC2)cc1)NC1CC1 [Example 2] | 8.74
CC(C)(O)Cn1cc2c(n1)CN(C(=O)Cc1ccc(OCC[C@@H]3C[C@@H]3C3CCN(c4ncc(Cl)cn4)CC3)cc1F)C2 [Example 124] | 8.49
CC(C)(C)NC(=O)c1nnc2n1CCN(C(=O)Cc1ccc(OCC[C@@H]3C[C@@H]3C3CCN(c4ncc(Cl)cn4)CC3)cc1F)C2 [Example 178] | 8.55
O=C(Cc1ccc(OCC[C@@H]2C[C@@H]2C2CCN(c3ncc(Cl)cn3)CC2)cc1F)N1Cc2cn[nH]c2C1 [Example 120] | 9.00
O=C(Cc1ccc(OCC[C@@H]2C[C@@H]2C2CCN(c3ncc(Cl)cn3)CC2)cc1F)N1CCc2ncncc2C1 [Example 127] | 8.82
CN(C(=O)Cc1ccc(OCC[C@@H]2C[C@@H]2C2CCN(c3ncc(Cl)cn3)CC2)cc1F)C1CCOC1 (stereo partly shown) [Example 154] | 9.39
O=C(Cc1ccc(OCC[C@@H]2C[C@@H]2C2CCN(c3ncc(Cl)cn3)CC2)cc1F)N1CCn2cnnc2C1 [Example 138] | 8.82
O=C(Cc1ccc(OCC[C@@H]2C[C@@H]2C2CCN(c3ncc(Cl)cn3)CC2)cc1)N1CCC1 [Example 1, 1-(azetidin-1-yl)-2-[4-(2-{(1S,2R)-2-[1-(5-chloropyrimidin-2-yl)piperidin-4-yl]cyclopropyl}ethoxy)phenyl]ethanone] | 9.10
O=C(Cc1ccc(OCC[C@@H]2C[C@@H]2C2CCN(c3ncc(Cl)cn3)CC2)cc1F)NC1CCCC1F (stereo partly shown) [Example 111] | 8.52
O=C(Cc1ccc(OCC[C@@H]2C[C@@H]2C2CCN(c3ncc(Cl)cn3)CC2)cc1F)N1CCC(C(F)(F)F)n2nccc21 (stereo partly shown) [Example 195] | 8.54
COC[C@@H]1CCCN1C(=O)Cc1ccc(OCC[C@@H]2C[C@@H]2C2CCN(c3ncc(Cl)cn3)CC2)cc1F [Example 78] | 8.42
O=C(Cc1ccc(OCC[C@@H]2C[C@@H]2C2CCN(c3ncc(Cl)cn3)CC2)cc1F)NC1CCCC1 [Example 83] | 8.89

Results, then the molecule that gave them:

pEC50 | Compound
8.52 | COCc1cnc(N2CCC([C@H]3C[C@H]3CCOc3ccc(CC(=O)N4CC(F)(F)C4)cc3)CC2)nc1 [Example 12]
8.60 | COCc1cnc(N2CCC([C@H]3C[C@H]3CCOc3ccc(CC(=O)N(C)C4COC4)c(F)c3)CC2)nc1 [Example 54]
8.29 | CC1(CNC(=O)Cc2ccc(OCC[C@@H]3C[C@@H]3C3CCN(c4ncc(Cl)cn4)CC3)cc2F)CCC1 [Example 96]
8.66 | COc1cnc(N2CCC([C@H]3C[C@H]3CCOc3ccc(CC(=O)N4CC(C)(O)C4)c(F)c3)CC2)nc1 [Example 35]
8.28 | O=C(Cc1ccc(OCC[C@@H]2C[C@@H]2C2CCN(c3ncc(Cl)cn3)CC2)cc1F)NCC1(O)CC1 [Example 101]
8.66 | COC(=O)C1CN(C(=O)Cc2ccc(OCC[C@@H]3C[C@@H]3C3CCN(c4ncc(Cl)cn4)CC3)cc2F)C1 [Example 115]
8.89 | COCCN(C)C(=O)Cc1ccc(OCC[C@@H]2C[C@@H]2C2CCN(c3ncc(Cl)cn3)CC2)cc1F [Example 104]
9.26 | CCOc1cnc(N2CCC([C@H]3C[C@H]3CCOc3cc(F)c(CC(=O)N4CC(O)C4)c(F)c3)CC2)nc1 [Example 232]
9.14 | Cc1cc(OCC[C@@H]2C[C@@H]2C2CCN(c3ncc(Cl)cn3)CC2)ccc1CC(=O)N1CCC1 [Example 15, 1-(azetidin-1-yl)-2-[4-(2-{(1S,2R)-2-[1-(5-chloropyrimidin-2-yl)piperidin-4-yl]cyclopropyl}ethoxy)-2-methylphenyl]ethanone]
9.40 | COCc1cnc(N2CCC([C@H]3C[C@H]3CCOc3cc(F)c(CC(=O)N(C)C)c(F)c3)CC2)nc1 [Example 224]
8.17 | COCc1cnc(N2CCC([C@H]3C[C@H]3CCOc3cc(F)c(Cc4nnco4)c(F)c3)CC2)nc1 [Example 247]
8.77 | CCOC(=O)CN(C)C(=O)Cc1ccc(OCC[C@@H]2C[C@@H]2C2CCN(c3ncc(Cl)cn3)CC2)cc1F [Example 171]
8.96 | CCc1cnc(N2CCC([C@H]3C[C@H]3CCOc3ccc(CC(=O)N4CCC4)c(C)c3)CC2)nc1 [Example 16]
8.72 | CCc1cnc(N2CCC([C@H]3C[C@H]3CCOc3ccc(CC(=O)NC4CC4)c(F)c3)CC2)nc1 [Example 208]
9.18 | CCOc1cnc(N2CCC([C@H]3C[C@H]3CCOc3cc(F)c(CC(=O)N4CC(C)(O)C4)c(F)c3)CC2)nc1 [Example 233]
8.33 | CCc1nnc2n1CCN(C(=O)Cc1ccc(OCC[C@@H]3C[C@@H]3C3CCN(c4ncc(Cl)cn4)CC3)cc1F)C2 [Example 151]
8.07 | CC1CC(C)CN(C(=O)Cc2ccc(OCC[C@@H]3C[C@@H]3C3CCN(c4ncc(Cl)cn4)CC3)cc2F)C1 (stereo partly shown) [Example 89]
9.72 | CCc1cnc(N2CCC([C@H]3C[C@H]3CCOc3ccc(CC(=O)N4CCC4)c(Cl)c3)CC2)nc1 [Example 21]
9.11 | O=C(Cc1ccc(OCC[C@@H]2C[C@@H]2C2CCN(c3ncc(Cl)cn3)CC2)cc1F)N1C[C@H](F)[C@@H](F)C1 [Example 75]
8.62 | COCc1cnc(N2CCC([C@H]3C[C@H]3CCOc3ccc(CC(=O)N4CC(O)C4)c(Cl)c3)CC2)nc1 [Example 29]
9.92 | CCOc1cnc(N2CCC([C@H]3C[C@H]3CCOc3cc(F)c(CC(=O)N4CC(OC)C4)c(F)c3)CC2)nc1 [Example 236]
9.06 | COc1cnc(N2CCC([C@H]3C[C@H]3CCOc3cc(F)c(CC(=O)N4CC(C)(O)C4)c(F)c3)CC2)nc1 [Example 212]
10.05 | COc1cnc(N2CCC([C@H]3C[C@H]3CCOc3cc(F)c(CC(=O)N4CC(F)C4)c(F)c3)CC2)nc1 [Example 216]
8.77 | C[C@H]1CCCN1C(=O)Cc1ccc(OCC[C@@H]2C[C@@H]2C2CCN(c3ncc(Cl)cn3)CC2)cc1F [Example 117]
8.77 | O=C(Cc1ccc(OCC[C@@H]2C[C@@H]2C2CCN(c3ncc(Cl)cn3)CC2)cc1F)N1CCC(O)CC1 [Example 163]
9.70 | COc1cnc(N2CCC([C@H]3C[C@H]3CCOc3cc(F)c(CC(=O)N4CCC4)c(F)c3)CC2)nc1 [Example 214]
